Data reported in US10562908B2, “Ortho substituted phenylpyrazolo- and phenylpyrrolo-pyridazine derivatives having multimodal activity against pain” (priority 2016, dated 2020).
Read-outs that look alike come from different tables or passages of the source.

Key:
human μ-opioid receptor = molecular target: T1, human μ-opioid receptor (Homo sapiens, UniProt P35372); assay: Human μ-opioid receptor radioligand assay ([3H]-DAMGO); assay type: binding
T1 construct: expressed in transfected cells; host or cells: CHO-K1
T1 sequence (P35372 whole entry): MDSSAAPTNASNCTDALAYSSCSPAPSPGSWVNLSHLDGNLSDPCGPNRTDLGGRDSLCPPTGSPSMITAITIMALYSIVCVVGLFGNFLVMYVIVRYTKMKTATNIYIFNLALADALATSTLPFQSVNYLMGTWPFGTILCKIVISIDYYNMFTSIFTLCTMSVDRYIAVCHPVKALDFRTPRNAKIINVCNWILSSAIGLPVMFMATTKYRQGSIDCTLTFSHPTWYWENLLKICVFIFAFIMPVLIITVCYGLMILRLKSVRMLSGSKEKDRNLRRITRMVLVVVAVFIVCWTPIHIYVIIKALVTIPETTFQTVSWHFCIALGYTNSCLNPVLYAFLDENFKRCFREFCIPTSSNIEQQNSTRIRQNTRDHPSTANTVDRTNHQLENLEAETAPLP
Experimental: Human μ-Opioid Receptor Radioligand Assay
To investigate binding properties of test compounds to human μ-opioid receptor, transfected CHO-K1 cell membranes and [^3H]-DAMGO (Perkin Elmer, ES-542-C), as the radioligand, were used. The assay was carried out with 20 μg of membrane suspension, 1 nM of [^3H]-DAMGO in either absence or presence of either buffer or 10 μM Naloxone for total and non-specific binding, respectively. Binding buffer contained Tris-HCl 50 mM, MgCl2 5 mM at pH 7.4. Plates were incubated at 27° C. for 60 minutes. After the incubation period, the reaction mix was then transferred to MultiScreen HTS, FC plates (Millipore), filtered and plates were washed 3 times with ice-cold 10 mM Tris-HCL (pH 7.4). Filters were dried and counted at approximately 40% efficiency in a MicroBeta scintillation counter (Perkin-Elmer) using EcoScint liquid scintillation cocktail, preferably, transfected CHO-K1 cell membranes (20 μg) were incubated with 1 nM of [^3H]-DAMGO in assay buffer containing Tris-HCl 50 mM, MgCl2 5 mM at pH 7.4. NBS (non-specific binding) was measured by adding 10 μM Naloxone. The binding of the test compound was measured at five different concentrations. Plates were incubated at 27° C. for 60 minutes. After the incubation period, the reaction mix was then transferred to MultiScreen HTS, FC plates (Millipore), filtered and plates were washed 3 times with ice-cold 10 mM Tris-HCL (pH 7.4). Filters were dried and counted at approximately 40% efficiency in a MicroBeta scintillation counter (Perkin-Elmer) using EcoScint liquid scintillation cocktail.

[1] = molecular target: Human α2δ-1 subunit of Cav2.2 calcium channel (Homo sapiens, UniProt P54289); assay: Human α2δ-1 subunit of Cav2.2 calcium channel assay ([3H]-Gabapentin); assay type: binding
Sequence of Human α2δ-1 subunit of Cav2.2 calcium channel (P54289 25-1103): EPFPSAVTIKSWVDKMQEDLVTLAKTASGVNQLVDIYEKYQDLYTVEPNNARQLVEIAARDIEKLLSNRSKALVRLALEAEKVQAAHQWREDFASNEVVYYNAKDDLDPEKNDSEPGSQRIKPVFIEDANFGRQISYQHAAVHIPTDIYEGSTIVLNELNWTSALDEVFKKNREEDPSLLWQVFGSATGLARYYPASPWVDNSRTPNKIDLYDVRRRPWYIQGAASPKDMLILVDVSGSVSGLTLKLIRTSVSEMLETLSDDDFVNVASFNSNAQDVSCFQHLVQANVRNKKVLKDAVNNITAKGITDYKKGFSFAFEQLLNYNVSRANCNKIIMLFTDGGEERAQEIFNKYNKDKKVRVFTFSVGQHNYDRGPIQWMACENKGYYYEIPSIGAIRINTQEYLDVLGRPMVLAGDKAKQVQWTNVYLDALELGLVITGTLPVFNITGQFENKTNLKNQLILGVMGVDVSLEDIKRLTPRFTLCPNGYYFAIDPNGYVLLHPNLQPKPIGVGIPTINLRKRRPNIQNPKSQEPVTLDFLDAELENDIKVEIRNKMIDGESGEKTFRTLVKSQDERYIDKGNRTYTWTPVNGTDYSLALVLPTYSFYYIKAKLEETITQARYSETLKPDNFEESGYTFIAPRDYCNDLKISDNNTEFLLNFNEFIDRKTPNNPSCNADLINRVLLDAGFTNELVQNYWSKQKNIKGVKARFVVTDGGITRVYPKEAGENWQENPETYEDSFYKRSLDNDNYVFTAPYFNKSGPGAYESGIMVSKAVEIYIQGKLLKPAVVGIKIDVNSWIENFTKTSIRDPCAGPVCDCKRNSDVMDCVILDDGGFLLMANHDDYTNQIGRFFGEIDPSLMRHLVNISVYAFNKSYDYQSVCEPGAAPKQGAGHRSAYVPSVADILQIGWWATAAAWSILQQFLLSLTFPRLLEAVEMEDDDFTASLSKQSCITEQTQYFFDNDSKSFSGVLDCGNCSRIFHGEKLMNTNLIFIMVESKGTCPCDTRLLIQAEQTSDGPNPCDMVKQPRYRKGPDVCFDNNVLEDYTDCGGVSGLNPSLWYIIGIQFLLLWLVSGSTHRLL
Experimental: Human α2δ-1 Subunit of Cav2.2 Calcium Channel Assay
Human α2δ-1 enriched membranes (2.5 μg) were incubated with 15 nM of radiolabeled [3H]-Gabapentin in assay buffer containing Hepes-KOH 10 mM, pH 7.4. NSB (non specific binding) was measured by adding 10 μM pregabalin. After 60 min incubation at 27° C., binding reaction was terminated by filtering through Multiscreen GF/C (Millipore) presoaked in 0.5% polyethyleneimine in Vacuum Manifold Station, followed by 3 washes with ice-cold filtration buffer containing 50 mM Tris-HCl, pH 7.4. Filter plates were dried at 60° C. for 1 hour and 30 μl of scintillation cocktail were added to each well before radioactivity reading. Readings were performed in a Trilux 1450 Microbeta radioactive counter (Perkin Elmer), i.e. Human α2δ-1 enriched membranes (2.5 μg) were incubated with 15 nM of radiolabeled [3H]-Gabapentin in assay buffer containing Hepes-KOH 10 mM, pH 7.4. NSB (non specific binding) was measured by adding 10 μM pregabalin. The binding of the test compound was measured at five different concentrations. After 60 min incubation at 27° C., binding reaction was terminated by filtering through Multiscreen GF/C (Millipore) presoaked in 0.5% polyethyleneimine in Vacuum Manifold Station, followed by 3 washes with ice-cold filtration buffer containing 50 mM Tris-HCl, pH 7.4. Filter plates were dried at 60° C. for 1 hour and 30 μl of scintillation cocktail were added to each well before radioactivity reading. Readings were performed in a Trilux 1450 Microbeta radioactive counter (Perkin Elmer).

[2] = transfected CHO-K1 cell membranes, 1 nM [3H]-DAMGO, read-out: Binding μ (Ki)
[3] = human α2δ-1 enriched membranes, 15 nM [3H]-Gabapentin, read-out: Binding α2δ-1 (Ki)

SMILES	Ki (human μ-opioid receptor)	Ki [1]	Ki (human μ-opioid receptor; [2])	Ki [1, 3]
CCNCCC(Oc1ccccc1-n1nc2c(N(C)C)nnc(C)c2c1C)c1ccccc1 (stereo not drawn) [Example 1, 2-(2-(3-(Ethylamino)-1-phenylpropoxy)phenyl)-N,N,3,4-tetramethyl-2H-pyrazolo[3,4-d]pyridazin-7-amine]	100 to 500 nM	500 to 5000 nM	–	–
Cc1nnc(N(C)C)c2nn(-c3ccccc3OCCN3CCCC3)c(C)c12 [Example 2, N,N,3,4-tetramethyl-2-(2-(2-(pyrrolidin-1-yl)ethoxy)phenyl)-2H-pyrazolo[3,4-d]pyridazin-7-amine]	–	–	> 500 nM	> 5000 nM
Cc1nnc(N(C)C)c2nn(-c3ccccc3OCC3CCNCC3)c(C)c12 [Example 3, N,N,3,4-tetramethyl-2-(2-(piperidin-4-ylmethoxy)phenyl)-2H-pyrazolo[3,4-d]pyridazin-7-amine]	–	–	> 500 nM	> 5000 nM
CNCCCOc1ccccc1-n1nc2c(N(C)C)nnc(C)c2c1C [Example 4, N,N,3,4-tetramethyl-2-(2-(3-(methylamino)propoxy)phenyl)-2H-pyrazolo[3,4-d]pyridazin-7-amine]	–	–	> 500 nM	500 to 5000 nM
Cc1nnc(N(C)C)c2nn(-c3ccccc3OCC3CCCNC3)c(C)c12 (stereo not drawn) [Example 5, N,N,3,4-tetramethyl-2-(2-(piperidin-3-ylmethoxy)phenyl)-2H-pyrazolo[3,4-d]pyridazin-7-amine]	–	–	> 500 nM	500 to 5000 nM
CNCCC(Oc1ccccc1-n1nc2c(N(C)C)nnc(C)c2c1C)c1ccccc1 (stereo not drawn) [Example 6, N,N,3,4-tetramethyl-2-(2-(3-(methylamino)-1-phenylpropoxy)phenyl)-2H-pyrazolo[3,4-d]pyridazin-7-amine]	100 to 500 nM	500 to 5000 nM	–	–
CNCCC(Oc1ccccc1-n1nc2c(NCc3ccccc3)nnc(C)c2c1C)c1ccccc1 (stereo not drawn) [Example 7, N-benzyl-3,4-dimethyl-2-(2-(3-(methylamino)-1-phenylpropoxy)phenyl)-2H-pyrazolo[3,4-d]pyridazin-7-amine]	–	–	> 500 nM	500 to 5000 nM
Cc1nnc(N(C)C)c2nn(-c3ccccc3OC3CCN(Cc4ccccc4)C3)c(C)c12 (stereo not drawn) [Example 8, 2-(2-((1-benzylpyrrolidin-3-yl)oxy)phenyl)-N,N,3,4-tetramethyl-2H-pyrazolo[3,4-d]pyridazin-7-amine]	–	–	> 500 nM	500 to 5000 nM
CNCCC(Oc1ccccc1-n1nc2c(Nc3ccccc3)nnc(C)c2c1C)c1ccccc1 (stereo not drawn) [Example 9, 3,4-dimethyl-2-(2-(3-(methylamino)-1-phenylpropoxy)phenyl)-N-phenyl-2H-pyrazolo[3,4-d]pyridazin-7-amine]	100 to 500 nM	> 5000 nM	–	–
CNCCC(C)Oc1ccccc1-n1nc2c(N(C)C)nnc(C)c2c1C (stereo not drawn) [Example 10, N,N,3,4-tetramethyl-2-(2-((4-(methylamino)butan-2-yl)oxy)phenyl)-2H-pyrazolo[3,4-d]pyridazin-7-amine]	–	–	> 500 nM	500 to 5000 nM
Cc1nnc(N(C)C)c2nn(-c3ccccc3OC(c3ccccc3)C3CCNCC3)c(C)c12 (stereo not drawn) [Example 11, N,N,3,4-tetramethyl-2-(2-(phenyl(piperidin-4-yl)methoxy)phenyl)-2H-pyrazolo[3,4-d]pyridazin-7-amine]	–	–	> 500 nM	500 to 5000 nM
Cc1nnc(N(C)C)c2nn(-c3ccccc3OC(C)CCNCc3ccccc3)c(C)c12 (stereo not drawn) [Example 12, 2-(2-((4-(benzylamino)butan-2-yl)oxy)phenyl)-N,N,3,4-tetramethyl-2H-pyrazolo[3,4-d]pyridazin-7-amine]	–	–	> 500 nM	500 to 5000 nM
Cc1nnc(N(C)C)c2nn(-c3ccccc3OC3CCNCC3)c(C)c12 [Example 13, N,N,3,4-tetramethyl-2-(2-(piperidin-4-yloxy)phenyl)-2H-pyrazolo[3,4-d]pyridazin-7-amine]	–	–	> 500 nM	> 5000 nM
CNCCC(Oc1ccccc1-n1nc2c(N(C)C)nnc(C)c2c1C)c1cccc(C#N)c1 (stereo not drawn) [Example 14, 3-(1-(2-(7-(dimethylamino)-3,4-dimethyl-2H-pyrazolo[3,4-d]pyridazin-2-yl)phenoxy)-3-(methylamino)propyl)benzonitrile]	–	–	> 500 nM	500 to 5000 nM
CNCCC(Oc1ccccc1-n1nc2c(N(C)C)nnc(C)c2c1C)c1ccc(C#N)cc1 (stereo not drawn) [Example 15, 4-(1-(2-(7-(dimethylamino)-3,4-dimethyl-2H-pyrazolo[3,4-d]pyridazin-2-yl)phenoxy)-3-(methylamino)propyl)benzonitrile]	–	–	> 500 nM	500 to 5000 nM
CNCCC(Oc1ccccc1-n1nc2c(N(C)C)nnc(C)c2c1C)C1CCOCC1 (stereo not drawn) [Example 16, N,N,3,4-tetramethyl-2-(2-(3-(methylamino)-1-(tetrahydro-2H-pyran-4-yl)propoxy)phenyl)-2H-pyrazolo[3,4-d]pyridazin-7-amine]	–	–	> 500 nM	> 5000 nM
Cc1nnc(N(C)C)c2nn(-c3ccccc3OCC(N)c3ccccc3)c(C)c12 (stereo not drawn) [Example 17, 2-(2-(2-amino-2-phenylethoxy)phenyl)-N,N,3,4-tetramethyl-2H-pyrazolo[3,4-d]pyridazin-7-amine]	–	–	> 500 nM	500 to 5000 nM
CNCCC(Oc1ccccc1-n1nc2c(N(C)C)nnc(C)c2c1C)c1ccccn1 (stereo not drawn) [Example 18, N,N,3,4-tetramethyl-2-(2-(3-(methylamino)-1-(pyridin-2-yl)propoxy)phenyl)-2H-pyrazolo[3,4-d]pyridazin-7-amine]	–	–	> 500 nM	500 to 5000 nM
CNCCC(Oc1ccccc1-n1nc2c(N(C)C)nnc(C)c2c1C)c1ccncc1 (stereo not drawn) [Example 19, N,N,3,4-tetramethyl-2-(2-(3-(methylamino)-1-(pyridin-4-yl)propoxy)phenyl)-2H-pyrazolo[3,4-d]pyridazin-7-amine]	–	–	> 500 nM	500 to 5000 nM
Cc1nnc(N(C)C)c2nn(-c3ccccc3OC(CCNCC3CC3)c3ccccc3)c(C)c12 (stereo not drawn) [Example 20, 2-(2-(3-((cyclopropylmethyl)amino)-1-phenylpropoxy)phenyl)-N,N,3,4-tetramethyl-2H-pyrazolo[3,4-d]pyridazin-7-amine]	100 to 500 nM	500 to 5000 nM	–	–
CNCCC(Oc1ccccc1-n1nc2c(N(C)C)nnc(C)c2c1C)c1cccnc1 (stereo not drawn) [Example 21, N,N,3,4-tetramethyl-2-(2-(3-(methylamino)-1-(pyridin-3-yl)propoxy)phenyl)-2H-pyrazolo[3,4-d]pyridazin-7-amine]	–	–	> 500 nM	500 to 5000 nM
Cc1nnc(N(C)C)c2nn(-c3ccccc3OCCC(N)c3ccccc3)c(C)c12 (stereo not drawn) [Example 22, 2-(2-(3-amino-3-phenylpropoxy)phenyl)-N,N,3,4-tetramethyl-2H-pyrazolo[3,4-d]pyridazin-7-amine]	–	–	> 500 nM	500 to 5000 nM
CNCCC(Oc1ccccc1-n1nc2c(N3CCOCC3)nnc(C)c2c1C)c1ccccc1 (stereo not drawn) [Example 23, 3-(2-(3,4-dimethyl-7-morpholino-2H-pyrazolo[3,4-d]pyridazin-2-yl)phenoxy)-N-methyl-3-phenylpropan-1-amine]	–	–	> 500 nM	500 to 5000 nM
CCCNCCC(Oc1ccccc1-n1nc2c(N(C)C)nnc(C)c2c1C)c1ccccc1 (stereo not drawn) [Example 24, N,N,3,4-tetramethyl-2-(2-(1-phenyl-3-(propylamino)propoxy)phenyl)-2H-pyrazolo[3,4-d]pyridazin-7-amine]	100 to 500 nM	500 to 5000 nM	–	–
